What was measured:
[1] = Form A and Form B inter-conversion study (competitive slurry, XRPD); format: physicochemical
Method: Competitive slurry experiments were conducted to evaluate the relative stability of Form A and Form B. Inter-conversion study was performed at room temperature and 50° C. using single and binary solvents listed in the Table 1 below. About 80 mg (100 mg for 50° C.) of Form A and Form B (1:1, w/w) was weighed into sample vials (8 mL) and then 3 mL (2 mL for 50° C.) of solvents were added to each vial. The obtained suspensions were kept stirring for 7 days at room temperature and 50° C., then filtered at specified time. The wet and dried solids were analyzed by XRPD (dried in vacuum oven at 45° C.).
Form B was dominant in tested solvent systems with water activity below 0.15 at room temperature (24˜27° C.). […] Pure Form A and Form B were stable during drying process (50° C., vacuum) for at least 2 days.

[2] = Solubility in bio-relevant media; format: physicochemical; conditions: for solubility at 24 h: salts; for pH value: solubility sample of salt

C=CC(=O)Nc1cc(Nc2nccc(Nc3cc(Cl)c(F)cc3C(C)(C)O)n2)c(OC)cc1N1CC[C@@H](N(C)C)C1 [Form A and Form B (1:1, w/w), (R)-N-(5-((4-((5-chloro-4-fluoro-2-(2-hydroxypropan-2-yl)phenyl)amino)pyrimidin-2-yl)amino)-2-(3-(dimethylamino)pyrrolidin-1-yl)-4-methoxyphenyl)acrylamide]
XRPD results of slurry ([1]; 1% water/acetone, 24~27° C., 1 d, after dry): A + B | XRPD results of slurry ([1]; 1% water/acetone, 24~27° C., 1 d, before dry): A + B | XRPD results of slurry ([1]; 1% water/acetone, 24~27° C., 3 d, after dry): A + B | XRPD results of slurry ([1]; 1% water/acetone, 24~27° C., 3 d, before dry): A + B | XRPD results of slurry ([1]; 1% water/acetone, 24~27° C., 7 d, before dry): A + B(increased) | XRPD results of slurry ([1]; 30% water/acetone, 24~27° C., 1 d, after dry): A + B | XRPD results of slurry ([1]; 30% water/acetone, 24~27° C., 1 d, before dry): A + B | XRPD results of slurry ([1]; 30% water/acetone, 24~27° C., 7 d, before dry): A + B | XRPD results of slurry ([1]; 30% water/acetone, 50° C., 1 d, after dry): A + B | XRPD results of slurry ([1]; 30% water/acetone, 50° C., 1 d, before dry): A + B | XRPD results of slurry ([1]; Acetone (no water), 50° C., 1 d, before dry): A (minor) + B | XRPD results of slurry ([1]; Acetone(no water), 24~27° C., 1 d, after dry): A + B | XRPD results of slurry ([1]; Acetone(no water), 24~27° C., 1 d, before dry): A + B | XRPD results of slurry ([1]; Acetone(no water), 24~27° C., 3 d, after dry): A + B | XRPD results of slurry ([1]; Acetone(no water), 24~27° C., 3 d, before dry): A + B | XRPD results of slurry ([1]; Acetone(no water), 24~27° C., 7 d, before dry): A + B(increased) | XRPD results of slurry ([1]; EtOH/IPA (1/1), 24~27° C., 1 d, after dry): A + B | XRPD results of slurry ([1]; EtOH/IPA (1/1), 24~27° C., 1 d, before dry): A + B | XRPD results of slurry ([1]; EtOH/IPA (1/1), 24~27° C., 7 d, before dry): A + B(increased) | XRPD results of slurry ([1]; EtOH/IPA (7/2), 24~27° C., 1 d, after dry): A + B | XRPD results of slurry ([1]; EtOH/IPA (7/2), 24~27° C., 1 d, before dry): A + B | XRPD results of slurry ([1]; EtOH/IPA (7/2), 24~27° C., 7 d, before dry): A + B(increased) | XRPD results of slurry ([1]; EtOH/water (1/1), 24~27° C., 1 d, after dry): A + B | XRPD results of slurry ([1]; EtOH/water (1/1), 24~27° C., 1 d, before dry): A + B | XRPD results of slurry ([1]; EtOH/water (1/1), 24~27° C., 7 d, before dry): A + B | XRPD results of slurry ([1]; Water, 24~27° C., 1 d, after dry): A + B | XRPD results of slurry ([1]; Water, 24~27° C., 1 d, before dry): A + B | XRPD results of slurry ([1]; Water, 24~27° C., 3 d, after dry): A + B | XRPD results of slurry ([1]; Water, 24~27° C., 3 d, before dry): A + B | XRPD results of slurry ([1]; Water, 24~27° C., 7 d, before dry): A + B | XRPD results of slurry ([1]; Water, 50° C., 1 d, after dry): A + B | XRPD results of slurry ([1]; Water, 50° C., 1 d, before dry): A + B | XRPD results of slurry ([1]; Water, 50° C., 3 d, after dry): A + B | XRPD results of slurry ([1]; Water, 50° C., 3 d, before dry): A + B | XRPD results of slurry ([1]; Water, 50° C., 7 d, before dry): A + B

C=CC(=O)Nc1cc(Nc2nccc(Nc3cc(Cl)c(F)cc3C(C)(C)O)n2)c(OC)cc1N1CC[C@@H](N(C)C)C1.O=C(O)/C=C/C(=O)O [Fumaric acid salt, (R)—N-(5-((4-((5-chloro-4-fluoro-2-(2-hydroxypropan-2-yl)phenyl)amino)pyrimidin-2-yl)amino)-2-(3-(dimethylamino)pyrrolidin-1-yl)-4-methoxyphenyl)acrylamide fumarate]
solubility at 24 h ([2]; FaSSIF): > 10.1 mg/mL | pH value ([2]; FaSSIF): 5.22 | solubility at 24 h ([2]; FeSSIF): > 9.75 mg/mL | pH value ([2]; FeSSIF): 4.94 | solubility at 24 h ([2]; SGF, simulated gastric fluid): > 12.2 mg/mL | pH value ([2]; SGF): 3.98

C=CC(=O)Nc1cc(Nc2nccc(Nc3cc(Cl)c(F)cc3C(C)(C)O)n2)c(OC)cc1N1CC[C@@H](N(C)C)C1.Cl [Hydrochloric acid salt, (R)—N-(5-((4-((5-chloro-4-fluoro-2-(2-hydroxypropan-2-yl)phenyl)amino)pyrimidin-2-yl)amino)-2-(3-(dimethylamino)pyrrolidin-1-yl)-4-methoxyphenyl)acrylamide Hydrochloride]
solubility at 24 h ([2]; FaSSIF): 1.95 mg/mL | pH value ([2]; FaSSIF): 6.62 | solubility at 24 h ([2]; FeSSIF): > 11.1 mg/mL | pH value ([2]; FeSSIF): 5.44 | solubility at 24 h ([2]; SGF, simulated gastric fluid): 11.8 mg/mL | pH value ([2]; SGF): 5.65

— patent US20250197377A1, “NOVEL PHARMACEUTICAL SALTS AND POLYMORPHIC FORMS OF AN ERBB AND BTK INHIBITOR” (DIZAL (JIANGSU) PHARMACEUTICAL CO., LTD., priority 2021, published 2025)
